Measurements taken from patent publication EP0503537B1, “6,9 Bis(substituted-amino)benzo-[g]isoquinoline-5,10-diones” (THE UNIVERSITY OF VERMONT, priority 1991, dated 1992).
Converted amounts (≈) assume the structure as drawn. “And” between values parts separate entries of the source, which are not always exact repeats. Equal entries are not always repeated.

Tests used:
[1] = test system: murine Lewis Lung carcinoma; experiment: In vivo murine Lewis Lung carcinoma (im/iv); design: species or system C57b1/6 female mice; conditions: LEWIS LUNG im/iv 1,8,15; for T/C %: median survival time; for TOX: toxic deaths/total number of mice; for TWI %: tumor Weight Inhibition 7 days after last treatment
Method: (§1) These tumor models are enclosed in the panel of eight transplanted tumors used by the U.S.-NCl as screen panel for selection of clinically useful antitumor agents (R.K.Y. Zee Cheng and C.C. Cheng, "Screening and evaluation of anticancer agents", Meth. and Find. Expl. Clin. Pharmacol., (1988), 10(2), 67-101).
C57b1/6 female mice were trasplantated im (intralimbs) with 10^5 cells. […] The mean tumor weight for each treatment group was calculated according to Geran, R.I. et al., Cancer Chemother. Rep., (1972), 3, 51-61 and the TWI% was calculated 7 days after the last drug treatment using the formula: TWI% = 100-[(Mean tumor weight of treated mice)/(mean tumor weight of controls)] x 100. [formula]

P388 Murine Leukemia [2] = experiment: In vivo P388 murine leukemia (iv/iv, d 1, 4, 7); conditions: for T/C% (range): median survival time; for TOX: toxic deaths/total number of mice; for LTS: tumor free at 60 days
Method: P388 Murine Leukemia cells were maintained in vivo by serial intraperitoneal (i.p.) injections of 10^6 cells in DBA2 mice. For test purposes, CDF1 mice were inoculated intravenously (i.v.) with 10^6 P388 cells and treatment was initiated 24 hr later. The i.v. dose of drug was administered on days 1, 4 and 7. Mice were observed daily for signs of toxicity and survival. The date of death was recorded for each animal that died or was sacrificed during the 60 day study. The median survival time (MST) for each treatment group was calculated and the % T/C was determined using the following formula: % T/C = [(MST treated)/(MST control)] x 100 [formula]

[3] = test system: human MX-1 mammary carcinoma; experiment: In vivo human MX-1 mammary carcinoma xenograft (sc/iv); conditions: MX-1 sc/iv q 7d x 3; for TWI %: CD1 nu/nu female mice; for TOX: toxic deaths/total number of mice
Source text: as §1
CD1 nu/nu female mice were transplantated sc (subcutaneously) with tumor fragments (about 1 mm x 1 mm x 1 mm). Treatment was given iv once a week for three weeks, when tumor weight reached an average of 150 mg. For all individual tumors the weight change (relative tumor weight) for the start of treatment (Vo) was expressed as Vt/Vo at each day of measurement (Vt). TWI% was calculated 7 days after the last drug treatment using the formula: TWI% = 100-[(mean relative tumor weight of treated mice)/(mean relative tumor weight of controls)] x 100. [formula]

Lovo/DX = experiment: MTT cytotoxicity assay on doxorubicin-resistant subline Lovo/DX; format: cell-based, human
Method: (§2) The evaluation of the "in vitro" cytotoxic activity of the compounds of the invention was performed using a human colon adenocarcinoma cell line (Lovo) isolated from a metastatic nodule and a subline with aquired resistance to a number of antitumor agents, among which doxorubicin, VP-16 and vincristine. […] The compounds were tested according to the MTT assay (Mosman, T., "Rapid Colorimetric assay for cellular growth and survival: application to proliferation and cytotoxicity assay", J. Immunol. Methods, (1983), 65, 55-63; Green, L.M., "Rapid colorimetric assay for cell viability; application to the quantitation of cytotoxic and growth inhibitory lymphokines", J. Immunol. Methods, (1984), 70, 257-268) in comparison with mitoxantrone, ametantrone and doxorubicin.
(§3) In vitro biological evaluation: MTT assay on human colon adenocarcinoma Lovo cells.
(§4) The MTT assay was performed according to Mosmann, T., J. Immunol. Methods, (1983), 65, 55-63 and Green, L. M., J. Immunol. Methods, (1984), 70, 257-268.
(§5) Immediately before use, compounds and reference standards are dissolved in proper solvent and subsequently further diluted in complete culture medium. Human colon adenocarcinoma cells Lovo and the subline resistant to doxorubicin (Lovo/DX) (2.5. 10^4 cells/ml) are plated in 96-well plates and preincubated for 24 hours in culture medium. After this time, the cells are exposed to drugs for 144 hours, then the thiazolyl blue tetrazolium bromide solution (MTT solution) is added and the cells are reincubated for 4 hours. The supernatant is removed and 150 µl of dimethylsulfoxide are added to solubilize formazan crystals. The plate is read at 570 nm with microplate reader and the inhibiting concentration of 50% cellular growth (IC50; µg/ml) is calculated.

[4] = test system: human colon adenocarcinoma cell line (Lovo); experiment: MTT cytotoxicity assay on human colon adenocarcinoma Lovo cells; format: cell-based; conditions: 144 h, read-out: IC50 µg/ml±S.D. LoVo
Method: as §2, §3, §4, §5

P388 Murine Leukemia [5] = experiment: In vivo ascitic P388 murine leukemia (ip/ip, d 1, 5, 9); design: species or system CDF1 mice; conditions: for % T/C (range): median survival time; for TOX: toxic deaths/total No. of mice
Method: Treatment was initiated approximately 24 hours after tumor transplantation and dosages of the drug were administered ip (P388 ip/ip) or iv (P388 iv/iv) according to preestablished protocols, usually at 3-day (P388 iv/iv) or 4-day (P388 ip/ip) intervals. The studies were done over a 60-day period and the date of death for each animal was recorded. The % T/C was determined using the mean survival time (MST) for each group according to the formula % T/C = [(MST treated)/(MST control)] x 100 [formula]
P388 Murine Leukemia cells were maintained in vivo by serial intraperitoneal (ip) injections of 10^6 cells in DBA2 mice. For test purposes, CDF1 mice were inoculated i.p. with 10^6 P388 cells and treatment was initiated 24 hours later. The i.p dose of drug was administered on days 1, 5 and 9. Mice were observed daily for signs of toxicity and survival. The date of death was recorded for each animal that died or was sacrificed during the 60-day study. The median survival time (MST) for each treatment group was calculated and the % T/C was determined using the following formula: % T/C = [(MST treated)/(MST control)] x 100 [formula]

[6] = test system: L1210 Murine leukemia cells; experiment: In vitro growth inhibition of L1210 murine leukemia cells (Coulter Counter); format: cell-based; conditions: Mus musculus, 72 hours of continuous exposure
Method: The "in vitro" cytotoxic evaluation was also performed on L 1210 murine leukemia cells using the above mentioned cells maintained in suspension cultures (McCoy's 5A medium supplemented with 10% horse serum, glutamine, penicillin and streptomycin) grown in an humidified environment of 10% carbon dioxide and 90% air at 37°C. The compounds were dissolved in dimethylsulfoxide (DMSO) and added to the suspended cells in appropriate concentrations. After 72 hours of continuous exposure, the cell concentration was counted using a Coulter Counter and growth inhibition calculated using the formula: % growth inhibition = 1 - [cell number treated/cell number DMSO alone] x 100. [formula]
The IC50 was calculated from the growth inhibition data and they are reported in table VII in comparison to the prior art compound 5a (see table I for structure of 5a).
L1210 Murine leukemia cells were routinely maintained in suspension cultures in McCoy's 5A medium supplemented with 10% horse serum glutamine, penicillin and streptomycin and grown in a humidified environment of 10% carbon dioxide and 90% air at 37°C.
To assess the in vitro toxicity, each compound was dissolved in dimethylsulfoxide and added to 1 ml of L1210 cells (10^5 cells/tube) to attain final concentrations of 0.01, 0.1 and 1 µg of drug/ml of culture. After 72 hours of continues exposure to the drug, the cell concentration was determined with a Coulter Counter. Growth inhibition was calculated for each drug using the following formula: % growth inhibition = 1-[cell number treated/cell number DMSO alone] x 100. [formula]
The growth inhibition data was then used to calculate the IC50 value (the calculated drug concentration required to inhibit cell growth by 50% of control.

L1210 murine leukemia = experiment: In vivo L1210 murine leukemia (ip/ip, d 1, 5, 9), protocol a, 10^6 cells; design: species or system BDF1 mice; conditions: days 1, 5 and 9, ip; for %T/C: mean survival time; for LTS: tumor-free at 60 days
Method: L 1210 leukemia cells were intraperitoneally (ip) injected in CDFl mice and treatment was initiated approximately 24 hours after tumor transplantation. Dosages of the drugs were administered ip according to preestablished protocols, usually at 4-day intervals. The studies were done over a 60-day period and the date of death for each animal was recorded. The % T/C was determined using the mean survival time (MST) for each group according to the formula % T/C = [(MST treated)/(MST control)] x 100 [formula]
• a) L1210 murine leukemia cells were maintained in vivo by weekly intraperitoneal (ip) injections of 10^6 cells in BDF1 mice. For test purposes, mice were inoculated i.p. with 10^6 L1210 cells and treatment was initiated 24 hours later. The desired dose of drug was administered on days 1, 5 and 9. Mice were observed daily for signs of toxicity and survival. The date of death was recorded for each animal that died or was sacrificed during the 60-day study. The mean survival time (MST) for each treatment group was calculated and the % T/C was determined using the following formula: % T/C = [(MST treated)/(MST control)] x 100 [formula] The results are reported in table X • b) L1210 murine leukemia cells were maintained in vivo by weekly intraperitoneal (ip) injections of 10^5 cells in DBA2 mice. For test purposes, CDF1 mice were inoculated i.p. with 10^5 L1210 cells and treatment was initiated 24 hours later. The desired dose of drug was administered on days 1, 5 and 9. Mice were observed daily for signs of toxicity and survival. The date of death was recorded for each animal that died or was sacrificed during the 60-day study. The median survival time (MST) for each treatment group was calculated and the % T/C was determined using the following formula: % T/C = [(MST treated)/(MST control)] x 100 [formula]

NCCNc1ccc(NCCN)c2c1C(=O)c1ccncc1C2=O.O=C(O)/C=C\C(=O)O.O=C(O)/C=C\C(=O)O [Compound 10i.maleate, 6,9-bis{[2-(amino)ethyl]amino}benzo[g]isoquinoline-5,10-dione dimaleate]
T/C % ([1]; 40 mg/Kg/day): 158%
TOX ([1]; 40 mg/Kg/day): 0/10
TWI % ([1]; 40 mg/Kg/day): 80%
T/C % ([1]; 60 mg/Kg/day): 182%
TOX ([1]; 60 mg/Kg/day): 1/10
TWI % ([1]; 60 mg/Kg/day): 95%
T/C% (range) (P388 Murine Leukemia [2]; 18 mg/kg/day iv days 1,4,7, dimaleate): 200% and 188%
TOX (P388 Murine Leukemia [2]; 18 mg/kg/day iv days 1,4,7): 0/16
LTS (P388 Murine Leukemia [2]; 18 mg/kg/day iv days 1,4,7): 0/16
T/C% (range) (P388 Murine Leukemia [2]; 27 mg/kg/day iv days 1,4,7): 203(181-227) %
TOX (P388 Murine Leukemia [2]; 27 mg/kg/day iv days 1,4,7): 2/32
LTS (P388 Murine Leukemia [2]; 27 mg/kg/day iv days 1,4,7): 0/32
TWI % ([3]; 17 mg/Kg/day): 65%
TOX ([3]; 17 mg/Kg/day): 0/7
TWI % ([3]; 26.6 mg/Kg/day): 58%
TOX ([3]; 26.6 mg/Kg/day): 0/7
TWI % ([3]; 40 mg/Kg/day): 64%
TOX ([3]; 40 mg/Kg/day): 1/5
IC50 (Lovo/DX; Homo sapiens, LoVo/DX, MTT assay, 144 hrs drug exposure, read-out: IC50 µg/ml±S.D. LoVo/Dx): 6.7 ± 1.8 µg/mL
R.I. (Lovo/DX; R.I. = (IC50 LoVo/Dx)/(IC50 LoVo)): 31.8
IC50 [4]: 0.21 ± 0.08 µg/mL
LTS (day 60) (P388 Murine Leukemia [5]; 25 mg/kg/day ip days 1,5,9): 0/8
% T/C (range) (P388 Murine Leukemia [5]; 25 mg/kg/day ip days 1,5,9): 185%
TOX (P388 Murine Leukemia [5]; 25 mg/kg/day ip days 1,5,9): 0/8
LTS (day 60) (P388 Murine Leukemia [5]; 37.5 mg/kg/day ip days 1,5,9): 1/8
% T/C (range) (P388 Murine Leukemia [5]; 37.5 mg/kg/day ip days 1,5,9): 260%
TOX (P388 Murine Leukemia [5]; 37.5 mg/kg/day ip days 1,5,9): 1/8

O=C1c2ccncc2C(=O)c2c(NCCN3CC3)ccc(NCCN3CC3)c21 [Compound 10f, 6,9-Bis{[2-(1'-aziridino)ethyl]amino}benzo[g]isoquinoline-5,10-dione]
IC50 [6]: 0.002 µg/mL (≈ 5.3 nM)

O=C1c2ccncc2C(=O)c2c(NCCNCCO)ccc(NCCNCCO)c21 [Compound 10l.maleate, 6,9-bis{[2-(2-hydroxyethylamino)ethyl]amino}benzo[g]isoquinoline-5,10-dione]
%T/C (L1210 murine leukemia; Dose 12.5 mg/kg): 313%
LTS (L1210 murine leukemia; Dose 12.5 mg/kg): 2/6
%T/C (L1210 murine leukemia; Dose 25 mg/kg): 415%
LTS (L1210 murine leukemia; Dose 25 mg/kg): 1/6
IC50 [6]: 0.06 µg/mL
